How the values were obtained:
[1] = test system: human colorectal cancer cells (HCT116); test: Nude mouse xenograft model of human colorectal cancer cells, intraperitoneal administration; format: in vivo
Procedure: Anticancer activity against colorectal cancer according to the intraperitoneal administration of Tr-9 was confirmed through a nude mouse xenograft model of human colorectal cancer cells (HCT116). In Example 5, Example 4 was repeated except for using colorectal cancer cells.
Specific pathogen-free (SPF) nude mice of the BALB/C strain were used as the animal model. Animals were bred in the animal room of Daedeok Campus of Hannam University maintained at a temperature of 23±3° C., relative humidity of 55±15%, ventilation frequency of 10-20 times/hr, lighting time of 12 hours(lights on at 8 am and off at 8 pm) and illuminance of 150 to 300 Lux.
For cancer cell transplantation, all cells were collected and counted on the last day of culture, and the concentration of human colorectal cancer cell line HCT116 was adjusted to 5×10^6 cells/ml using PBS. The adjusted cell culture solution was injected subcutaneously into the auxiliary region between the right scapula and chest wall at 0.2 ml (1×10^6 cells/mouse) per mouse.
The Tr-9 was dissolved in sterile PBS and 1 mM Tr-9 200 µℓ was intraperitoneally administered per mouse once a day, and all animals were weighed immediately before the start of drug (Tr-9) administration and 9 times in total from day 2 to day 21 after cancer cell transplantation (Table 7).
In Table 7 above, data values are the mean ± standard deviation. After measuring the body weight, the animals were killed using CO2 gas, and the tumor was separated and the size was measured in 3 directions using a vernier caliper for each animal. Then, the change in tumor size was expressed as a calculated value of (length × width × height)/2 (Table 8).
Tumor size increase is (Δt)═ Vt—Vo, wherein Vt is the value of measuring the tumor size by date, and Vo is the value of measuring the initial tumor size.

[2] = test system: colorectal cancer(HCT116) cell line; test: WST-1 assay, cell viability of colorectal cancer cell line; format: cell-based, human; conditions: 10-100 µg/Mℓ, 24 hours, FIG. 7
Procedure: (§1) The cytotoxicity of the Tr-9 compound to six cancer cell lines was confirmed. Lung cancer(A549), gastric cancer(AGS), liver cancer(Hep3B)), breast cancer(MDA-MB-231), colorectal cancer(HCT116) and pancreatic cancer(BxPC-3) cell lines and fibroblasts were aliquoted in a 96-well plate in an amount of 5×10^3 cells/well, and the novel compound Tr-9 was treated thereto at a concentration of 10, 20, 40, 60, 80, 100 µg/Mℓ for 24 hours, respectively. Lung cancer cell line was further treated at a concentration of 100 µg/Mℓ for 24 hours, 48 hours and 72 hours.
(§2) Then, the amount of living cells was measured using WST(high sensitive Water Soluble Tetrazolium salt). WST reacts with dehydrogenase in living cells and produces orange-colored watersoluble formazan. Since dehydrogenase that reacts with WST is an enzyme present in the mitochondrial electron transport chain of metabolically active cells and is effective only in living cells, the production of formazan is proportional to the number of living cells. Therefore, the absorbance at 450 nm was measured to confirm the cell viability through the formation of formazan.

[3] = test system: breast cancer(MDA-MB-231) cell line; test: WST-1 assay, cell viability of breast cancer cell line; format: cell-based; conditions: 10-100 µg/Mℓ, 24 hours, FIG. 5
Procedure: as §1, §2

[4] = test system: Lung cancer(A549) cell line; test: WST-1 assay, cell viability of lung cancer cell line; format: cell-based, human; conditions: 10-100 µg/Mℓ, 24 hours, FIG. 3
Procedure: as §1, §2

[5] = test system: liver cancer(Hep3B) cell line; test: WST-1 assay, cell viability of liver cancer cell line; format: cell-based; conditions: 10-100 µg/Mℓ, 24 hours, FIG. 6
Procedure: as §1, §2

Human fibroblast = test: WST-1 assay, cell viability of fibroblasts (normal cells); format: cell-based; conditions: 10-100 µg/Mℓ, 24 hours, FIG. 9
Procedure: as §1, §2

[6] = test system: gastric cancer(AGS) cell line; test: WST-1 assay, cell viability of gastric cancer cell line; format: cell-based; conditions: 10-100 µg/Mℓ, 24 hours, FIG. 4
Procedure: as §1, §2

[7] = test system: pancreatic cancer(BxPC-3) cell line; test: WST-1 assay, cell viability of pancreatic cancer cell line; format: cell-based; conditions: 10-100 µg/Mℓ, 24 hours, FIG. 8
Procedure: as §1, §2

[8] = Change in mouse weight, A549 xenograft, oral administration; format: in vivo, nude mouse; parameters: Change in mouse weight: unit not given here; conditions: once a day
Procedure: The Tr-9 was dissolved in sterile PBS and 1 mM Tr-9 200 µℓ was orally administered per mouse once a day, and all animals were weighed immediately before the start of drug (Tr-9) administration and 10 times in total from day 2 to day 23 after cancer cell transplantation (Table 1).
In Table 1 above, data values are the mean ± standard deviation. After measuring the body weight, the animals were killed using CO2 gas, and the tumor was separated and the size was measured in 3 directions using a vernier caliper for each animal. Then, the change in tumor size was expressed as a calculated value of (length × width × height)/2 (Table 2).

[9] = Change in mouse weight, A549 xenograft, intraperitoneal administration; format: in vivo, nude mouse; parameters: Change in mouse weight: unit not given here; conditions: once a day
Procedure: The Tr-9 was dissolved in sterile PBS and 1 mM Tr-9 200 µℓ was intraperitoneally administered per mouse once a day, and all animals were weighed immediately before the start of drug (Tr-9) administration and 10 times in total from day 2 to day 23 after cancer cell transplantation (Table 4).
In Table 4 above, data values are the mean ± standard deviation. After measuring the body weight, the animals were killed using CO2 gas, and the tumor was separated and the size was measured in 3 directions using a vernier caliper for each animal. Then, the change in tumor size was expressed as a calculated value of (length × width × height)/2 (Table 4).

SMILES: CC(=O)OC(C)(C)C1CC2=C(C)C(=O)CC2C(C)CC1OC(=O)CC(C)C (centres unmarked) [Tr-9]
- tumor size further reduced compared to the group intraperitoneally administered with the torilin ([1]; intraperitoneal): about 10%
- Tumor size increase (Vt−V0) ([1]; intraperitoneal once a day, Day 0, table title: Change in tumor size): 0.0±0.0
- Tumor size increase (Vt−V0) ([1]; intraperitoneal once a day, Day 2, table title: Change in tumor size): 53.1±17.9
- Inhibition rate (tumor size increase) ([1]; intraperitoneal once a day, Day 2, vs control): 19.8%
- Tumor size increase (Vt−V0) ([1]; intraperitoneal once a day, Day 5, table title: Change in tumor size): 139.4±40.3
- Inhibition rate (tumor size increase) ([1]; intraperitoneal once a day, Day 5, vs control): 22.9%
- Tumor size increase (Vt−V0) ([1]; intraperitoneal once a day, Day 7, table title: Change in tumor size): 312.6±71.9
- Inhibition rate (tumor size increase) ([1]; intraperitoneal once a day, Day 7, vs control): 30.1%
- Tumor size increase (Vt−V0) ([1]; intraperitoneal once a day, Day 9, table title: Change in tumor size): 453.9±112.5
- Inhibition rate (tumor size increase) ([1]; intraperitoneal once a day, Day 9, vs control): 35.1%
- Tumor size increase (Vt−V0) ([1]; intraperitoneal once a day, Day 11, table title: Change in tumor size): 648.7±112.0
- Inhibition rate (tumor size increase) ([1]; intraperitoneal once a day, Day 11, vs control): 37.0%
- Tumor size increase (Vt−V0) ([1]; intraperitoneal once a day, Day 14, table title: Change in tumor size): 849.8±110.2
- Inhibition rate (tumor size increase) ([1]; intraperitoneal once a day, Day 14, vs control): 38.3%
- Tumor size increase (Vt−V0) ([1]; intraperitoneal once a day, Day 16, table title: Change in tumor size): 1075.9±155.6
- Inhibition rate (tumor size increase) ([1]; intraperitoneal once a day, Day 16, vs control): 40.1%
- Tumor size increase (Vt−V0) ([1]; intraperitoneal once a day, Day 18, table title: Change in tumor size): 1326.9±216.2
- Inhibition rate (tumor size increase) ([1]; intraperitoneal once a day, Day 18, vs control): 35.2%
- Tumor weight at Day 21 ([1]; intraperitoneal once a day, Day 21): 2.48 ± 0.308 g
- Tumor size increase (Vt−V0) ([1]; intraperitoneal once a day, Day 21, table title: Change in tumor size): 1690.3±144.2
- Inhibition rate (tumor size increase) ([1]; intraperitoneal once a day, Day 21, vs control): 35.9%
- tumor size compared to the control group ([1]; intraperitoneal, after day 14): statistically significantly smaller
- cell viability [2]: decreases the cell viability
- cell viability [3]: decreases the cell viability
- cell viability [4]: decreases the cell viability
- cell viability [5]: decreases the cell viability
- cell viability of human fibroblast (Human fibroblast): little change in the cell viability
- cell viability [6]: decreases the cell viability
- cell viability [7]: decreases the cell viability
- Change in mouse weight ([8]; 0 Day after drug treatment): 100.0 ±0.0
- Change in mouse weight ([8]; 2 Days after drug treatment): 95.6 ±1.7
- Change in mouse weight ([8]; 5 Days after drug treatment): 96.9 ±1.8
- Change in mouse weight ([8]; 7 Days after drug treatment): 99.5 ±1.5
- Change in mouse weight ([8]; 9 Days after drug treatment): 102.3 ±2.8
- Change in mouse weight ([8]; 12 Days after drug treatment): 98.6 ±1.5
- Change in mouse weight ([8]; 14 Days after drug treatment): 100.7 ±3.6
- Change in mouse weight ([8]; 16 Days after drug treatment): 102.5 ±3.8
- Change in mouse weight ([8]; 19 Days after drug treatment): 103.6 ±5.5
- Change in mouse weight ([8]; 21 Days after drug treatment): 102.9 ±5.7
- Change in mouse weight ([8]; 23 Days after drug treatment): 104.7 ±5.6
- difference in body weight according to the administration of the drugs ([8]; day 2 to day 23): almost no difference in body weight
- Change in mouse weight ([9]; 0 Day after drug treatment): 100.0 ±0.0
- Change in mouse weight ([9]; 2 Days after drug treatment): 98.2 ±1.0
- Change in mouse weight ([9]; 5 Days after drug treatment): 94.7 ±2.5
- Change in mouse weight ([9]; 7 Days after drug treatment): 94.1 ±2.2
- Change in mouse weight ([9]; 9 Days after drug treatment): 99.7 ±2.7
- Change in mouse weight ([9]; 12 Days after drug treatment): 96.7 ±3.1
- Change in mouse weight ([9]; 14 Days after drug treatment): 97.3 ±2.8
- Change in mouse weight ([9]; 16 Days after drug treatment): 100.2 ±1.8
- Change in mouse weight ([9]; 19 Days after drug treatment): 98.3 ±2.9
- Change in mouse weight ([9]; 21 Days after drug treatment): 99.4 ±1.6
- Change in mouse weight ([9]; 23 Days after drug treatment): 100.2 ±2.6
- difference in body weight according to the administration of the drugs ([9]; day 2 to day 23): almost no difference in body weight
